Laboratory results from PMC2965873, “Phase I and pharmacological study of the broad-spectrum tyrosine kinase inhibitor JNJ-26483327 in patients with advanced solid tumours” (British Journal of Cancer, 2010).

What was measured:
advanced solid tumours = test: anti-tumour activity (RECIST); format: in vivo, human; conditions: 19 patients
Description: (§1) Prior to therapy, a complete medical history was taken and a physical examination was performed. A complete blood cell (CBC) count, WBC count and differential and serum biochemistry including lipid profile and coagulation tests were performed, as were urinalysis, a 12-lead electrocardiogram (ECG) and MUGA scanning. Weekly evaluations during the first cycle, every other week during the second cycle and monthly thereafter included history, physical examination, adverse event assessment, CBC, WBC+differential, serum chemistry, ECG and urinalysis. An ECG was performed predose and 1, 2, 4, 8 and 24 h postdose on days 1 and 28. Follow-up of LVEF by MUGA scanning was performed at the end of the first and second cycle. Tumour measurements were performed at baseline and during every other cycle. Response was assessed according to RECIST ([Therasse et al, 2000]).

Yes = tested on: Yes; set-up: method as in Johnson & Johnson, data on file; conditions: Src family; ref Johnson & Johnson, data on file; read-out: IC50 range; cited from earlier work
healthy male volunteers = tested on: healthy male volunteers; set-up: method as in preceding study in healthy male volunteers; conditions: single doses up to and including 200 mg; ref preceding study in healthy male volunteers; cited from earlier work
c-Src = tested on: c-Src; set-up: method as in Johnson & Johnson, data on file; conditions: ref Johnson & Johnson, data on file; cited from earlier work
Her4 = tested on: Her4; set-up: method as in Johnson & Johnson, data on file; conditions: ref Johnson & Johnson, data on file; read-out: IC50 range; cited from earlier work
xenograft mouse models = tested on: xenograft mouse models; set-up: method as in Johnson & Johnson, data on file; conditions: preclinical studies; ref Johnson & Johnson, data on file; cited from earlier work
RET-receptor kinase = target: RET-receptor kinase; set-up: method as in Johnson & Johnson, data on file; conditions: in vitro; ref Johnson & Johnson, data on file; cited from earlier work
EGFR kinase = target: EGFR kinase; set-up: method as in Johnson & Johnson, data on file; conditions: in vitro; ref Johnson & Johnson, data on file; cited from earlier work
[1] = set-up: method as in Johnson & Johnson, data on file; conditions: preclinical studies; ref Johnson & Johnson, data on file; cited from earlier work
Her2 = tested on: Her2; set-up: method as in Johnson & Johnson, data on file; conditions: ref Johnson & Johnson, data on file; cited from earlier work
[2] = tested on: patients with advanced solid tumours; test: phase I safety, DLT and MTD; format: in vivo
Description: JNJ-26483327 was supplied by Johnson & Johnson Pharmaceutical Research and Development, Beerse, Belgium as 10 or […] oral solution for doses ⩽1200 mg, or capsules of 50, 100 or 300 mg for doses ⩾1500 mg. Medication was taken in combination with food BID with 12 h intervals. A cycle was defined as 28 days of treatment.
The study followed an accelerated-escalation design. Initial cohorts consisted of one patient with dose doublings between cohorts in the absence of grade ⩾2 toxicity according to the National Cancer Institute Common Toxicity Criteria version 3.0 during the first cycle (http://ctep.cancer.gov/protocolDevelopment/electronic_applications/docs/ctcaev3.pdf). Once grade ⩾2 considered drug-related toxicity occurred during the first cycle, two additional patients were enrolled at that dose level with subsequent cohorts in accordance with a conventional dose-escalation (3+3) model. DLT was defined as any grade 3 or 4 non-haematological toxicity, except for nausea, vomiting or diarrhoea responsive to treatment; grade 3 skin rash/acne responsive to treatment, alopecia and isolated grade 3 GGT elevations; need for loperamide for >7 days to treat or prevent grade ⩾2 diarrhoea; need for continuous administration of 5HT-3 antagonists for >7 days to treat or prevent grade ⩾2 nausea or vomiting; a relative decrease of LVEF on MUGA scan of >20% compared with baseline; any grade 4 haematological toxicity or treatment interruptions of >14 days for grade ⩾2 toxicity in cycle 1.
If during the conventional escalation stage no DLT occurred, the dose for the next cohort was incremented with 20–100%. If DLT was observed during cycle 1 in one of three patients, an additional three patients were enrolled at that dose level. If ⩾2 out of 6 patients experienced DLT, the MTD was exceeded and three more patients were enrolled at the next lower dose level, unless already six patients had been accrued at that dose. The MTD was defined as the highest dose at which less than one-third of the patients experienced DLT.
as §1

[3] = set-up: method as in Johnson & Johnson, data on file; conditions: ref Johnson & Johnson, data on file; cited from earlier work
Lyn = tested on: Lyn; set-up: method as in Johnson & Johnson, data on file; conditions: Src family; ref Johnson & Johnson, data on file; read-out: IC50 range; cited from earlier work
Flt3 = tested on: Flt3; set-up: method as in Johnson & Johnson, data on file; conditions: ref Johnson & Johnson, data on file; cited from earlier work
[4] = tested on: mutationally activated EGFR kinases; set-up: method as in Johnson & Johnson, data on file; conditions: in vitro, several mutants; ref Johnson & Johnson, data on file; cited from earlier work
Fyn = tested on: Fyn; set-up: method as in Johnson & Johnson, data on file; conditions: Src family; ref Johnson & Johnson, data on file; read-out: IC50 range; cited from earlier work
[5] = phase I plasma pharmacokinetics; format: in vivo, human
Description: For pharmacokinetic analysis, blood samples (3 ml) were collected before dosing and 0.5, 1, 2, 3, 4, 6, 8 and 24 h after drug administration on days 1 and 28 and predose, 0.5, 1, 2, 4 and 6 h postdose on day 15 of the first cycle and day 28 of the second cycle. Furthermore, trough PK samples were taken before drug administration on days 8 and 22. Blood samples were collected and protected from light in EDTA-Vacutainer® tubes and plasma was separated by centrifugation and stored at −20°C within 2 h of collection. Plasma concentrations of JNJ-26483327 were determined by validated, selective and sensitive liquid chromatography–mass spectrometry bioanalytical method.
Graphical analysis was performed using dose-normalised Cmax as well as AUC of days 1 and 28 for exploration of dose proportionality across doses.
The pharmacokinetic analysis and descriptive statistics were performed using PKAA 2.00 (developed for J&JPRD). PKAA 2.00 uses WinNonLin 5.2.1. Elimination rate constants (λz) were calculated as the negative of the slope of the terminal log-linear segment of the plasma concentration–time curves. The range of data used for each subject and dose were determined by visual inspection of a semi-logarithmic plot of concentration vs time. At least three data points were used to estimate λz. All PK calculations and figures used validated software.

[6] = 800 mg BID, day 1, n=3, mean±s.d.
[7] = 800 mg BID, day 28 (steady state), n=2, mean
[8] = 1200 mg BID, day 1, n=3, mean±s.d.
[9] = 1200 mg BID, day 28 (steady state), n=2, mean
[10] = 1500 mg BID, day 1, n=6, mean±s.d.
[11] = 1500 mg BID, day 28 (steady state), n=6, mean±s.d.
[12] = 2100 mg BID, day 1, n=3, mean±s.d.
[13] = 2100 mg BID, day 28 (steady state), n=2, mean

COc1cc2ncnc3c2cc1OCCCCCN(C)Cc1ccc(Br)cc1N3 [JNJ-26483327]
patients with stable disease lasting more than two cycles (advanced solid tumours; 100–2100 mg BID): six
patients with stable disease (advanced solid tumours; more than two cycles): 32%
IC50 (Yes): 11 to 99 nM
safety and tolerability (healthy male volunteers): safe and well tolerated
IC50 (c-Src): 100 to 1000 nM
IC50 (Her4): 11 to 99 nM
anti-cancer activity (xenograft mouse models): anti-cancer activity was observed
IC50 (RET-receptor kinase): < 10 nM
IC50 (EGFR kinase): < 10 nM
tissue distribution profile [1]: passage of the blood–brain barrier
IC50 (Her2): 100 to 1000 nM
Anaemia: patients, Total % ([2]; in vivo): 15.8%
Anaemia: patients, Total n ([2]; in vivo): 3
Anorexia: patients, Total % ([2]; in vivo): 42.1%
Constipation: patients, Total % ([2]; in vivo): 10.5%
Constipation: patients, Total n ([2]; in vivo): 2
Diarrhoea: patients, Total n ([2]; in vivo): 12
Dry skin: patients, Total % ([2]; in vivo): 10.5%
Dry skin: patients, Total n ([2]; in vivo): 2
Dyspepsia: patients, Total % ([2]; in vivo): 10.5%
Dyspepsia: patients, Total n ([2]; in vivo): 2
Dysphonia: patients, Total % ([2]; in vivo): 15.8%
Dysphonia: patients, Total n ([2]; in vivo): 3
Fatigue: patients, Total % ([2]; in vivo): 47.4%
Fatigue: patients, Total n ([2]; in vivo): 9
Nausea: patients, Total % ([2]; in vivo): 68.4%
Nausea: patients, Total n ([2]; in vivo): 13
Pain: patients, Total % ([2]; in vivo): 10.5%
Pain: patients, Total n ([2]; in vivo): 2
Rash: patients, Total % ([2]; in vivo): 57.9%
Rash: patients, Total n ([2]; in vivo): 11
Skin discolouration: patients, Total % ([2]; in vivo): 5.3%
Skin discolouration: patients, Total n ([2]; in vivo): 1
Skin exfoliation (palms): patients, Total % ([2]; in vivo): 5.3%
Skin exfoliation (palms): patients, Total n ([2]; in vivo): 1
Vomiting: patients, Total % ([2]; in vivo): 52.6%
Vomiting: patients, Total n ([2]; in vivo): 10
Weight decreased: patients, Total % ([2]; in vivo): 10.5%
Weight decreased: patients, Total n ([2]; in vivo): 2
gastrointestinal side effects, incidence ([2]; in vivo): 95%
hypertension ([2]; in vivo): no hypertension was noted
patients with grade 2 anaemia ([2]; in vivo): three
skin toxicity, overall incidence ([2]; in vivo): 68%
subjects with a significant decrease in LVEF ([2]; in vivo): None
recommended dose for further studies (phase 2 dose) ([2]; in vivo, po): 1500 mg BID
maximum tolerated dose (MTD) ([2]; oral, continuous, 28-day cycles): 1500 mg BID
oral bioavailability [3]: ~80%
IC50 (Lyn): 11 to 99 nM
IC50 (Flt3): 100 to 1000 nM
IC50 [4]: < 10 nM
IC50 (Fyn): 11 to 99 nM
CL/F [5, 6]: 86.3 ± 33.5 L/h
Cmax [5, 6]: 2210 ± 593 ng/mL
Vdz/F [5, 6]: 1021 ± 401 L
t1/2 [5, 6]: 8.4 ± 1.8 h
tmax ([5]; 800 mg BID, day 1, n=3, median (min–max)): 2.03 (2.00–3.02) h
AUC (AUCtau) [5, 7]: 10 623 ng h ml^−1
CL/F [5, 7]: 76.4 L/h
Cmax [5, 7]: 2390 ng/mL
tmax ([5]; 800 mg BID, day 28 (steady state), n=2, median (min–max)): 1.52 (1.00–2.03) h
CL/F [5, 8]: 47.4 ± 35.3 L/h
Cmax [5, 8]: 3707 ± 1927 ng/mL
Vdz/F [5, 8]: 342 ± 212 L
t1/2 [5, 8]: 5.2 ± 1.7 h
tmax ([5]; 1200 mg BID, day 1, n=3, median (min–max)): 3.00 (2.00–6.00) h
AUC (AUCtau) [5, 9]: 21 230 ng h ml^−1
CL/F [5, 9]: 88.4 L/h
Cmax [5, 9]: 2750 ng/mL
tmax ([5]; 1200 mg BID, day 28 (steady state), n=2, median (min–max)): 1.00 (1.00–1.00) h
CL/F [5, 10]: 144 ± 104 L/h
Cmax [5, 10]: 2361 ± 1765 ng/mL
Vdz/F [5, 10]: 1038 ± 799 L
t1/2 [5, 10]: 4.8 ± 0.5 h
tmax ([5]; 1500 mg BID, day 1, n=6, median (min–max)): 4.00 (2.00–4.03) h
CL/F [5, 11]: 286 ± 540 L/h
Cmax [5, 11]: 3375 ± 2116 ng/mL
tmax ([5]; 1500 mg BID, day 28 (steady state), n=6, median (min–max)): 3.99 (3.00–12.00) h
CL/F [5, 12]: 3055 ± 5099 L/h
t1/2 [5, 12]: 6.7 ± 1.7 h
Cmax ([5]; 2100 mg BID, day 1, n=4, mean±s.d.): 2213 ± 2983 ng/mL
tmax ([5]; 2100 mg BID, day 1, n=4, median (min–max)): 3.54 (2.00–4.08) h
AUC (AUCtau) [5, 13]: 8467 ng·h/mL
CL/F [5, 13]: 3087 L/h
Cmax [5, 13]: 1236 ng/mL
tmax ([5]; 2100 mg BID, day 28 (steady state), n=2, median (min–max)): 5.00 (4.00–6.00) h
dose proportionality of pharmacokinetics ([5]; Cmax and AUC at steady state): dose proportional up to 1500 mg
terminal half-life ([5]; all dose levels): 5 to 8 h
peak concentration (average) ([5]; day 1, 1200 mg): ~4 μg ml^–1
Cmax ([5]; day 1, 1500 and 2100 mg dose groups): ~2 μg ml^–1
time to reach Cmax ([5]; first administration, capsule formulation (dose levels 1500 and 2100 mg)): up to 4 h
time to reach Cmax ([5]; first administration, liquid formulation (dose levels 800 and 1200 mg)): 2 to 3 h
time to reach Cmax ([5]; steady state (days 15 and 28), capsule formulation): 2 to 5 h
time to reach Cmax ([5]; steady state (days 15 and 28), liquid formulation): 1 to 2 h
